From ChEMBL document CHEMBL3585324, “Suncheonosides A-D, Benzothioate Glycosides from a Marine-Derived Streptomyces sp” (J Nat Prod, 2015)
Activity calls are given as the source filed them. The rule behind the calls is not given here.

Tests used:
Mesenchymal stem cell [1] = test: (§1) Antidiabetic activity against IDX medium-treated human bone marrow mesenchymal stem cells assessed as induction of adipogenesis at 10 uM after 6 days by oil red o/hematoxylin staining-based inverted-phase microscopic analysis relative to IDX medium-treated control; assay type: functional
[2] = Cytotoxicity against human bone marrow mesenchymal stem cells assessed as cell viability up to 100 uM after 48 hrs by WST-1 assay; assay type: cell-based
[3] = as §1; assay type: functional, Mesenchymal stem cell
[4] = Antidiabetic activity against IDX medium-treated human bone marrow mesenchymal stem cells assessed as induction of adiponectin production during adipogenesis after 6 days by ELISA relative to glibenclamide; assay type: functional, Mesenchymal stem cell
Mesenchymal stem cell [5] = test: Antidiabetic activity against IDX medium-treated human bone marrow mesenchymal stem cells assessed as induction of adiponectin production during adipogenesis after 6 days by ELISA; assay type: functional
Mesenchymal stem cell [6] = test: Antidiabetic activity against IDX medium-treated human bone marrow mesenchymal stem cells assessed as induction of adiponectin production during adipogenesis at 60 to 100 uM after 6 days by ELISA relative to IDX medium-treated control; assay type: functional

Structure (SMILES) | Activity (Mesenchymal stem cell [1]) | Activity [2] | Activity [3] [%] | %max [4] [%] | Activity (Mesenchymal stem cell [5]) | Activity (Mesenchymal stem cell [6])
COc1c(C)c(O[C@@H]2O[C@@H](C)[C@H](O)[C@@H](O)[C@H]2O)c(C)c(C(C)C)c1C(=O)SC | Active |  |  |  |  | 
COc1c(C)c(O[C@@H]2O[C@@H](C)[C@H](O)[C@@H](O)[C@H]2O)c(C(=O)SC)c(C(C)C)c1C |  | Non-toxic | 65 | 47 | Dose-dependent effect | 
COc1ccc(Cl)cc1C(=O)NCCc1ccc(S(=O)(=O)NC(=O)NC2CCCCC2)cc1 |  |  |  |  | Dose-dependent effect | 
CSC(=O)c1c(O[C@@H]2O[C@@H](C)[C@H](O)[C@@H](O)[C@H]2O)c(C)c(O)c(C)c1C(C)C |  | Non-toxic | 107 | 44 | Dose-dependent effect | 
CSC(=O)c1c(O)c(C)c(O)c(C)c1C(C)C |  | Non-toxic |  |  |  | inactive
CSC(=O)c1c(O[C@@H]2O[C@@H](C)[C@H](O)[C@@H](O)[C@H]2O)c(C)c(O[C@@H]2O[C@@H](C)[C@H](O)[C@@H](O)[C@H]2O)c(C)c1C(C)C |  | Non-toxic | 75 | 38 | Dose-dependent effect | 
